Experimental data reported in paper PMC5154303, “Flavonol and imidazole derivatives block HPV16 E6 activities and reactivate apoptotic pathways in HPV^+ cells” (Cell Death & Disease, 2016).
pEC50: −log10 of the molar value.

Assays:
Type in all cases: cell-based, human
[1] = tested on: SiHa cells; assay: TRAIL-induced apoptosis in SiHa cells (MTT); conditions: for viability at 125 µM / pEC50: Homo sapiens; for viability at 125 µM: SiHa, 125 μM compound, TRAIL 100 ng/ml + cycloheximide 5 μg/ml, cells without small molecule = 100%, read-out: viability of SiHa cells in the presence of TRAIL; for pEC50 / increase in cell death in the presence versus absence of TRAIL: SiHa cells; for pEC50: compound 4 h prior to TRAIL 100 ng/ml + cycloheximide 5 μg/ml, overnight, MTT; for increase in cell death in the presence versus absence of TRAIL: from the EC50 values of Table 2
Protocol: (§1) Figure 3 (a) HPV^+ SiHa cells are resistant to TRAIL-induced apoptosis as compared with the human osteosarcoma cell line U2OS. Cells (2 × 10^4 cells per well) were seeded into a 96-well plate, allowed to incubate overnight, and then treated with the indicated concentration of TRAIL in the presence of cycloheximide (5 μg/ml). The viability of cells was measured after overnight incubation using the MTT assay; the viability of cells untreated with TRAIL was set at 100% for each group. (b) The indicated concentrations of three small molecules were added to SiHa cells, and an MTT assay was preformed after overnight incubation. The viability of cells untreated with small molecules was set as 100%. (c) The indicated concentrations of myricetin or spinacine were added 4 h prior to TRAIL (100 ng/ml) in the presence of cycloheximide (5 μg/ml) and incubated at 37 °C overnight. The viability of cells untreated with small molecules was set at 100%. (d and e) SiHa cells (2 × 10^4 cells per well) were seeded into a 96-well plate and allowed to incubate overnight. In all, 100 μM of myricetin and 50 μM of spinacine were added 4 h prior to either (d) doxorubicin or (e) cisplatin. Cell viability was measured after overnight incubation using the MTT assay, and the viability of cells untreated with either myricetin or spinacine was set at 100%. Experiments were performed in triplicate, and error bars indicate the S.D.
Figure 5 Myricetin and spinacine (5) can re-sensitize HPV^+, but not HPV^−, cells to treatment with TRAIL. SiHa (2 × 10^4 cells per well) and C33A cells (1 × 10^4 cells per well) were seeded into a 96-well plate and allowed to incubate overnight, and then cells were pretreated in the presence or absence of (a) myricetin (100 μM) or (b) spinacine (50 μM) for 4 h. The indicated concentration of TRAIL along with cycloheximide (5 μg/ml) was added, and the cells were allowed to incubate overnight. Cell viability was measured by MTT assay, and the viability of cells untreated with TRAIL was set at 100%. Experiments were performed in triplicate, and error bars indicate the S.D.
The extracellular domain of human TRAIL was cloned into a pTriEx expression plasmid containing N-terminal Hisx6 tag. His-TRAIL was expressed in the E. coli BL-21 pLys strain and purified as previously described. Doxorubicin and cisplatin were purchased from Sigma. His-TRAIL, doxorubicin, and cisplatin were diluted in PBS to the desired concentration before using. To measure cell survival following treatment with TRAIL, cisplatin and doxorubicin, SiHa (2 × 10^4/well), C33A (1 × 10^4/well), and HNSCC cells (2 × 10^4/well) were seeded into 96-well plates and allowed to adhere overnight. Small molecules at the desired concentration were added and incubated at 37 °C for 4 h. As indicated, TRAIL, cisplatin, or doxorubicin was then added. The TRAIL treatment group contained cycloheximide (5 μg/ml) to inhibit de novo protein synthesis, and the cells were incubated for 16 h prior to measuring cell viability by the MTT assay preformed as described previously.[38] All experiments were repeated at least three times (three biological replicates, carried out on different days), with each experimental group measured in triplicate within each of these individual experiments. Data presented are from a representative experiment.

[2] = tested on: SiHa cells; assay: Sensitization of SiHa cells to cisplatin (MTT); conditions: 100 μM myricetin or 50 μM spinacine 4 h prior to cisplatin, versus negative control
Protocol: as §1, with “The viability of cells untreated with small molecules was set at 100%. (d and e) SiHa cells (2 × 10^4 cells per well) were seeded into a 96-well plate and allowed to incubate overnight. In all, 100 μM of myricetin and 50 μM of spinacine were added 4 h prior to either (d) doxorubicin or (e) cisplatin.” left out, “Experiments were performed in triplicate, and error bars indicate the S.D.” left out
The extracellular domain of human TRAIL was cloned into a pTriEx expression plasmid containing N-terminal Hisx6 tag. […] All experiments were repeated at least three times (three biological replicates, carried out on different days), with each experimental group measured in triplicate within each of these individual experiments. […]

[3] = tested on: p53; assay: p53 ELISA in SiHa cells; conditions: with 4 μg/ml mitomycin C, 24 h
Protocol: Figure 6 Treatment with myricetin and spinacine (5) increases cellular levels of caspase 8 and p53. (a) SiHa cells (1 × 10^6 per well) were seeded into a six-well plate and allowed to incubate overnight. The indicated concentrations of myricetin and spinacine were added, and then cells were incubated for 24 h. Cells were then washed in 1 × PBS and then harvested, and the resulting level of caspase 8 was measured by immunoblot. (b) SiHa and C33A cells (1 × 10^6 per well) were seeded into a six-well plate and allowed to incubate overnight. In all, 200 μM of myricetin and 100 μM spinacine were added together with 4 μg/ml mitomycin C and incubated for 24 h. The resulting level of p53 was measured by enzyme-linked immunosorbent assay, and the level of p53 found in untreated cells was set at 100%. Experiments were performed in triplicate, and error bars indicate the S.D.
The p53 ELISA was performed as described previously,[26] with some modifications. Antibodies secreted by clone pAb122 (hybridoma obtained from ATCC, antibodies purified from the culture medium using protein-A Sepharose) were used as monoclonal capture antibodies. […] The average and S.D. of the replicates (a minimum of three) were calculated, normalized to the control, and used to prepare the graph.

SMILES | sensitivity of SiHa cells to TRAIL ([1]; 100 μM myricetin pretreatment 4 h, TRAIL up to 100 ng/ml + cycloheximide) | viability at 125 µM [1] | pEC50 [1] | increase in cell death in the presence versus absence of TRAIL [1] | sensitivity of SiHa cells to cisplatin [2] | increase in p53 compared with untreated cells ([3]; 200 μM) | increase in p53 compared with untreated cells ([3]; 100 μM)
O=c1c(O)c(-c2cc(O)c(O)c(O)c2)oc2cc(O)cc(O)c12 [Myricetin, myricetin, reference compound] | increased dramatically | 30 to 40% | 3.81 | 3.5 fold | increased the sensitivity | 4.4 fold | –
O=C(O)C1Cc2[nH]cnc2CN1 (centres unmarked) [Spinacine (5), 4,5,6,7-tetrahydro-1H-imidazo[4,5–c]pyridine-6-carboxylic acid] | – | 30 to 40% | 4.50 | 8.6 fold | increased the sensitivity | – | 3.4 fold
